Consider one compound from patent US9555009B2, “Ciprofloxacin loaded diethylaminoethyl cellulose nanoparticles” (priority 2014, dated 2017).

The conditions of this data set: XRD.

`O=C(O)c1cn(C2CC2)c2cc(N3CCNCC3)c(F)cc2c1=O` [pure ciprofloxacin, Ciprofloxacin]: the “average crystallite size / particle size by Scherrer's equation” value is recorded as 3.22 nm.
